The subject of series [1] is Rattus norvegicus. Briefly: Antiinflammatory activity in ovalbumin induced Brown Norway rat assessed as reduction in eosinophil counts in lung lavage fluid at 240 microg/kg administered using nebulizer for 24 hrs prior to ovalbumin challenge measured after 48 hrs by flow cytometry. The following applies: dose 240.0 µg/kg, time 72.0 hrs. It counts as functional, organism-based.

In series [2] the target is Phosphatidylinositol 4,5-bisphosphate 3-kinase catalytic subunit alpha isoform (Homo sapiens, UniProt P42336). Briefly: Inhibition of recombinant human PI3Kalpha assessed as reduction in ADP production using Dic8-PIP2 as substrate pre-treated for 15 mins followed by substrate addition measured after 60 mins by ADP-glo assay.
Chain of Phosphatidylinositol 4,5-bisphosphate 3-kinase catalytic subunit alpha isoform (P42336 whole entry, the tested form may be a part, canonical isoform): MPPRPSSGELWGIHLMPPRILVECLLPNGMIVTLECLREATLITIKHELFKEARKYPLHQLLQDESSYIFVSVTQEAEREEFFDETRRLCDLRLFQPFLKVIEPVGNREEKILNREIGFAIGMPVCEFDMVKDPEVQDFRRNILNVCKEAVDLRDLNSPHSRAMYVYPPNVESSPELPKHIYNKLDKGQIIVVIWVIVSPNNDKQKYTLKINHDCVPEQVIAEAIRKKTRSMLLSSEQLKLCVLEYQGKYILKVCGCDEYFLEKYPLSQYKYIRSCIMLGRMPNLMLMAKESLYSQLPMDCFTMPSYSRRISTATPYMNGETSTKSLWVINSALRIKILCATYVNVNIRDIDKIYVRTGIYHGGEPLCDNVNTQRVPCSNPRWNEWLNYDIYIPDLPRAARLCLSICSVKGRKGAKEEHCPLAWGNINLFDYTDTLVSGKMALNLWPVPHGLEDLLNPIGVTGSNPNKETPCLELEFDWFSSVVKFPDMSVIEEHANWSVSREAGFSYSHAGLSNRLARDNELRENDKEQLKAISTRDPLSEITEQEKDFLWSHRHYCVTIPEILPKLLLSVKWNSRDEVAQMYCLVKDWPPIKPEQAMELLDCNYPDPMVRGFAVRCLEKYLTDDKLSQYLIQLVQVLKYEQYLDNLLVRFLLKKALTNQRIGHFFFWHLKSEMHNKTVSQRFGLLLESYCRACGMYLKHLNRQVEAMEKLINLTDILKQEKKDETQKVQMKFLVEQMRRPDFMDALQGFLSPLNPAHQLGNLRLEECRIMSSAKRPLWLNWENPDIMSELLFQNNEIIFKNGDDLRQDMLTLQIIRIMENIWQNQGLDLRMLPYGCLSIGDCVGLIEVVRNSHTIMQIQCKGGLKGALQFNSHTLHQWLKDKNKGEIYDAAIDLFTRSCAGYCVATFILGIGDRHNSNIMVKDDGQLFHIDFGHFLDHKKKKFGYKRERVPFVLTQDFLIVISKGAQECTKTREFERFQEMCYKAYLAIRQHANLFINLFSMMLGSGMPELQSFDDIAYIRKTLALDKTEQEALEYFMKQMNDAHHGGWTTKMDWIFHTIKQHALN
In series [3] the target is Phosphatidylinositol 4-phosphate 3-kinase C2 domain-containing subunit alpha (Homo sapiens, UniProt O00443). Briefly: Inhibition of PIK3C2A (unknown origin) assessed as reduction in substrate phosphorylation by FRET Adapta assay.
Chain of Phosphatidylinositol 4-phosphate 3-kinase C2 domain-containing subunit alpha (O00443 whole entry, the tested form may be a part, canonical isoform): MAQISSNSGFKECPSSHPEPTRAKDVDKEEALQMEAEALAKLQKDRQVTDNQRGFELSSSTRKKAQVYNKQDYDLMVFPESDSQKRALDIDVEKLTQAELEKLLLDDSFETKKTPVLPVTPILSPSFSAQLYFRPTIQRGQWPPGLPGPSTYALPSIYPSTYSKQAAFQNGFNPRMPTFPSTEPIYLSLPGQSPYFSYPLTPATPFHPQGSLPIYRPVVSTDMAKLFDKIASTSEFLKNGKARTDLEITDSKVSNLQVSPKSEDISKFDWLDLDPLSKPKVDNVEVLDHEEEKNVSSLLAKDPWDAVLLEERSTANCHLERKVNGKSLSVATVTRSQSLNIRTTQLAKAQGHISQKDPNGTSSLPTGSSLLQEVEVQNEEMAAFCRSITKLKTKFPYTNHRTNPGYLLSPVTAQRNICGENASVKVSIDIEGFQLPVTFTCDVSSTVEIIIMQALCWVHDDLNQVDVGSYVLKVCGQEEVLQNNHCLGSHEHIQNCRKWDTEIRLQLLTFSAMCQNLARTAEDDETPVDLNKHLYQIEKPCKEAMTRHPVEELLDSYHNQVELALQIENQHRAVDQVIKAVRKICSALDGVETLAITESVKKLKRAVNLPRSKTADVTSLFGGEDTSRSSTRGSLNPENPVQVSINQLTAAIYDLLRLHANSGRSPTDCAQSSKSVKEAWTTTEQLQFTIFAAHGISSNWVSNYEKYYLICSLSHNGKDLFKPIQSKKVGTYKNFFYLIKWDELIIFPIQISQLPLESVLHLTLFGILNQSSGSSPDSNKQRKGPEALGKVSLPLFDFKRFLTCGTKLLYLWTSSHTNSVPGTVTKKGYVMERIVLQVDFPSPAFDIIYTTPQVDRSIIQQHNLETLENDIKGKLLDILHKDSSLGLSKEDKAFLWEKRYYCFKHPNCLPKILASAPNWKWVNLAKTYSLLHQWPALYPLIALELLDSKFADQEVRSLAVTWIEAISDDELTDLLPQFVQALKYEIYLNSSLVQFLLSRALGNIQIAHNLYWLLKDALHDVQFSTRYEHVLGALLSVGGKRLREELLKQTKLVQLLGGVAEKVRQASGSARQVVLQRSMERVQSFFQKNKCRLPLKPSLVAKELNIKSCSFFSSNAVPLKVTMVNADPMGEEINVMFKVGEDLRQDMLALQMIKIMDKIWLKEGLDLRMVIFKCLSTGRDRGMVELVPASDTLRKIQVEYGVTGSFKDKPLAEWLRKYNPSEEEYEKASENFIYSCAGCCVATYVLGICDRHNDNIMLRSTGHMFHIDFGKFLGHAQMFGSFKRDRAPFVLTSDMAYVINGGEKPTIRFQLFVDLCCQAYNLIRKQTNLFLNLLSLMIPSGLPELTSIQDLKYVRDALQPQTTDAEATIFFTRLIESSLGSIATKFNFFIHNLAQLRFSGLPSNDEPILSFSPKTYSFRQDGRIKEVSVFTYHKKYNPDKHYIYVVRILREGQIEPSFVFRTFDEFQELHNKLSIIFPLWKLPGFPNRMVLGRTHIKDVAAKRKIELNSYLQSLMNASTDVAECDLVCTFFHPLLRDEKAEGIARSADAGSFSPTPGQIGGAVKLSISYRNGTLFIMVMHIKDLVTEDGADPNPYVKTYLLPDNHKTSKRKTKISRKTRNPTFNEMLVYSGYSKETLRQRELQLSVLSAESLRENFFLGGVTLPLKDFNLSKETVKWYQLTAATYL
Series [4] addresses T1, Phosphatidylinositol 4,5-bisphosphate 3-kinase catalytic subunit delta isoform/gamma isoform (Homo sapiens) (UniProt P48736+O00329). Briefly: Inhibition of PI3kgamma/delta in eotaxin-3-stimulated human eosinophils derived from asthmatic patient assessed as reduction in CD11b expression pre-incubated for 30 mins followed by eotaxin-3 stimulation for 30 mins by flow cytometry. The following applies: Eosinophil, time 60.0 min. It counts as tissue-based.

The nature of series [5]: Half life in rat plasma at 0.5 mg/kg, iv. In kind it is ADME, organism-based.
Series [6] concerns the target Phosphatidylinositol 4,5-bisphosphate 3-kinase catalytic subunit gamma isoform (Mus musculus, UniProt Q9JHG7). Briefly: Inhibition of PI3Kgamma in C5a-stimulated mouse RAW 264 cells assessed as inhibition of AKT phosphorylation at Ser473 residue Pretreated for 15 mins followed by C5a stimulation measured after 3 mins by HTRF assay. It counts as cell-based.
Series [7] can be described thus: Volume of distribution at steady state in rat at 0.5 mg/kg, iv. It counts as ADME, organism-based. The following applies: in vivo, read-out: Vdss.
The nature of series [8]: Apparent terminal half life in rat administered via inhalation. The conditions noted are these: in vivo, inhaled or intranasal. In kind it is ADME.
For series [9], the target named is T2, Phosphatidylinositol 4,5-bisphosphate 3-kinase catalytic subunit delta isoform (Homo sapiens, UniProt O00329).
T2 sequence (O00329 whole entry): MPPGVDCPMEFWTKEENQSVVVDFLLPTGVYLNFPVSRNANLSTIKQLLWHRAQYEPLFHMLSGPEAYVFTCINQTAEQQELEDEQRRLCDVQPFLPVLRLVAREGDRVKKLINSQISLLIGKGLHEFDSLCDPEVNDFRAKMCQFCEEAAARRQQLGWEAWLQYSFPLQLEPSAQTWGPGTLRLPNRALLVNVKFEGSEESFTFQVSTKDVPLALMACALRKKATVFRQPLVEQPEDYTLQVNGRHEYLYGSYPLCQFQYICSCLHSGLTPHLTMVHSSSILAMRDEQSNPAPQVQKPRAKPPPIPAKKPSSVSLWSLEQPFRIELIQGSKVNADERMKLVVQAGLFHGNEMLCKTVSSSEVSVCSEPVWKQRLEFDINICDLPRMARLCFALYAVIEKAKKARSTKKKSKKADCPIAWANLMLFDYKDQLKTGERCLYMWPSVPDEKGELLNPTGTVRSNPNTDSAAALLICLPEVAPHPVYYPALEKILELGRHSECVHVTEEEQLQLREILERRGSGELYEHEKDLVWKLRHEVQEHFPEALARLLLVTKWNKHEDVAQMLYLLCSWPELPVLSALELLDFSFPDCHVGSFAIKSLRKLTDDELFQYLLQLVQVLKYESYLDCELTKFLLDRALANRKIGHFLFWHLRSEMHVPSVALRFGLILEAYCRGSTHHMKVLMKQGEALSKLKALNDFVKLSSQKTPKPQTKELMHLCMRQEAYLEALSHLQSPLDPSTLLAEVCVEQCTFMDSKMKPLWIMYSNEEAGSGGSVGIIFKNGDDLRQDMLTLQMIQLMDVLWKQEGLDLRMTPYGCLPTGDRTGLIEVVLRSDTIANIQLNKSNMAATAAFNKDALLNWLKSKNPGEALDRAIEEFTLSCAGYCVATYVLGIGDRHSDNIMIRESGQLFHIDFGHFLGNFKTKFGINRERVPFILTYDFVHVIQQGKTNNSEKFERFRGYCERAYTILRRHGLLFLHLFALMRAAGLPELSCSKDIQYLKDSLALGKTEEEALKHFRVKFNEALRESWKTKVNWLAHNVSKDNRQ
Briefly: Inhibition of recombinant human PI3Kdelta assessed as reduction in ADP production using Dic8-PIP2 as substrate pre-treated for 15 mins followed by substrate addition measured after 60 mins by ADP-glo assay.

Series [10] is described as follows: Thermodynamic stability assessed as onset melting temperature. In kind it is physicochemical.
Series [11] concerns the target Phosphatidylinositol 4-kinase alpha (Homo sapiens, UniProt P42356). Briefly: Inhibition of PI4KA (unknown origin) assessed as reduction in substrate phosphorylation by FRET Adapta assay.
The target of series [12] is Phosphatidylinositol 4-kinase beta (Homo sapiens, UniProt Q9UBF8). Briefly: Inhibition of PI4KB (unknown origin) assessed as reduction in substrate phosphorylation by FRET Adapta assay.
A short description of series [13]: Apparent permeability in human Caco2 cells. It counts as ADME, cell-based. The conditions noted are these: caco-2.
Series [14] addresses T1, Phosphatidylinositol 4,5-bisphosphate 3-kinase catalytic subunit delta isoform/gamma isoform (Homo sapiens). Briefly: Inhibition of PI3kgamma/delta in anti-CD2/3/28-stimulated human PBMC cells derived from asthmatic patient assessed as reduction in IL-5 release pre-incubated for 1 hr followed by anti-CD2/3/28 stimulation measured after 24 hrs by flow cytometry. In kind it is cell-based. The following applies: time 25.0 hrs.

For series [15] the target is unchanged. Briefly: Inhibition of PI3kgamma/delta in anti-CD2/3/28-stimulated human PBMC cells derived from asthmatic patient assessed as reduction in IL-17 release pre-incubated for 1 hr followed by anti-CD2/3/28 stimulation measured after 24 hrs by flow cytometry. In kind it is cell-based. The conditions noted are these: time 25.0 hrs.
Series [16] has as its target Phosphatidylinositol 4-phosphate 3-kinase C2 domain-containing subunit beta (Homo sapiens, UniProt O00750). Briefly: Inhibition of PIK3C2B (unknown origin) assessed as reduction in substrate phosphorylation by FRET Adapta assay.
Series [17] is described as follows: Distribution coefficient, logD of compound at pH 7.4. The conditions noted are these: octanol/water. It counts as physicochemical.
The nature of series [18]: Permeability in human Caco2 cells. It counts as ADME, cell-based. The conditions noted are these: caco-2.
Series [19] is described as follows: Oral bioavailability in rat at 1.0 mg/kg. It counts as ADME, organism-based. The following applies: in vivo.
The nature of series [20]: Clearance in rat at 0.5 mg/kg, iv. It counts as ADME, organism-based. The following applies: in vivo.
The subject of series [21] is Rattus norvegicus. Briefly: Antiinflammatory activity in ovalbumin induced Brown Norway rat assessed as reduction in eosinophil counts in lung lavage fluid at 240 microg/kg administered using nebulizer for 12 hrs prior to ovalbumin challenge measured after 48 hrs by flow cytometry. In kind it is functional, organism-based. The following applies: dose 240.0 µg/kg, time 60.0 hrs.

Series [22] deals with Rattus norvegicus. Briefly: Antiinflammatory activity in ovalbumin-induced Brown Norway rat assessed as reduction in eosinophil counts in bronchoalveolar lavage at 240 microg/kg inhaled using nebulizer 7 hrs prior to ovalbumin challenge measured after 48 hrs by flow cytometry. The conditions noted are these: dose 240.0 µg/kg, time 55.0 hrs. It counts as functional, organism-based.

In series [23] the target is Phosphatidylinositol 3-kinase catalytic subunit type 3 (Homo sapiens, UniProt Q8NEB9). Briefly: Inhibition of PIK3C3 (unknown origin) assessed as reduction in substrate phosphorylation by FRET Adapta assay.
A short description of series [24]: Solubility of compound in at pH 7.4 at 1 mg/ml using crystalline form of sample incubated for 24 hrs by HPLC MS analysis. In kind it is physicochemical.

In brackets after ≈: the same amount, converted by molar mass. Activity calls are given as the source filed them. The rule behind the calls is not given here.

The values that follow come from ChEMBL document CHEMBL5029145, “Discovery of AZD8154, a Dual PI3Kγδ Inhibitor for the Treatment of Asthma” (J Med Chem, 2021).

T1 sequence (P48736 whole entry, looked up, one chain of several, canonical isoform): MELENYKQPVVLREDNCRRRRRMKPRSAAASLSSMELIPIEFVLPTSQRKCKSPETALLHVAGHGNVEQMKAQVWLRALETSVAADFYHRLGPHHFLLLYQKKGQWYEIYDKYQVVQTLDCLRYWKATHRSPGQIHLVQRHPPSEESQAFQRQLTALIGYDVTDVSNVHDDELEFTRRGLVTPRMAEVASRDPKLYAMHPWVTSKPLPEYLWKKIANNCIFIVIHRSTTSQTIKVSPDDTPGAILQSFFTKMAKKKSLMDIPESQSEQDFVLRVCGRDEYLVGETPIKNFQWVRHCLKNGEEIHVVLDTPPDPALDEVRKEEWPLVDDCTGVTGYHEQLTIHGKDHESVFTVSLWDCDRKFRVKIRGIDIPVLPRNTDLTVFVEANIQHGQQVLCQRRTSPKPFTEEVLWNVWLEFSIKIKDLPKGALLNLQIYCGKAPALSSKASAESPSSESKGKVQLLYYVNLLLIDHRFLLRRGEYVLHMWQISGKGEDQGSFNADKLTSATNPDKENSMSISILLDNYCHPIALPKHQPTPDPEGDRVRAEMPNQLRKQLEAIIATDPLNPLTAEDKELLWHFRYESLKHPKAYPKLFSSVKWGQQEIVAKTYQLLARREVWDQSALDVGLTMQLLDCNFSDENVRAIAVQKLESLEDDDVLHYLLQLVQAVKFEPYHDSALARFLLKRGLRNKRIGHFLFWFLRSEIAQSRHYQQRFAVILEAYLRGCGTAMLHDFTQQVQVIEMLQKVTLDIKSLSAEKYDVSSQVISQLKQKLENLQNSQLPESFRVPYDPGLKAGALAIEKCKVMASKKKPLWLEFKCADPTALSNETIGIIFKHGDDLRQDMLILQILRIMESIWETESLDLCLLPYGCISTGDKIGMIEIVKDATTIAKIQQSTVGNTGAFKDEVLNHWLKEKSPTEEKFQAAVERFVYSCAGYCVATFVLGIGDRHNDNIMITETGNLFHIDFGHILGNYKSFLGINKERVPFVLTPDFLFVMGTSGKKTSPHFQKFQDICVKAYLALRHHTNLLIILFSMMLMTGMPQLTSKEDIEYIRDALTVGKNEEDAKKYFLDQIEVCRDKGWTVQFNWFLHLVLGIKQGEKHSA
Chain of Phosphatidylinositol 4,5-bisphosphate 3-kinase catalytic subunit gamma isoform (Q9JHG7 whole entry, canonical isoform): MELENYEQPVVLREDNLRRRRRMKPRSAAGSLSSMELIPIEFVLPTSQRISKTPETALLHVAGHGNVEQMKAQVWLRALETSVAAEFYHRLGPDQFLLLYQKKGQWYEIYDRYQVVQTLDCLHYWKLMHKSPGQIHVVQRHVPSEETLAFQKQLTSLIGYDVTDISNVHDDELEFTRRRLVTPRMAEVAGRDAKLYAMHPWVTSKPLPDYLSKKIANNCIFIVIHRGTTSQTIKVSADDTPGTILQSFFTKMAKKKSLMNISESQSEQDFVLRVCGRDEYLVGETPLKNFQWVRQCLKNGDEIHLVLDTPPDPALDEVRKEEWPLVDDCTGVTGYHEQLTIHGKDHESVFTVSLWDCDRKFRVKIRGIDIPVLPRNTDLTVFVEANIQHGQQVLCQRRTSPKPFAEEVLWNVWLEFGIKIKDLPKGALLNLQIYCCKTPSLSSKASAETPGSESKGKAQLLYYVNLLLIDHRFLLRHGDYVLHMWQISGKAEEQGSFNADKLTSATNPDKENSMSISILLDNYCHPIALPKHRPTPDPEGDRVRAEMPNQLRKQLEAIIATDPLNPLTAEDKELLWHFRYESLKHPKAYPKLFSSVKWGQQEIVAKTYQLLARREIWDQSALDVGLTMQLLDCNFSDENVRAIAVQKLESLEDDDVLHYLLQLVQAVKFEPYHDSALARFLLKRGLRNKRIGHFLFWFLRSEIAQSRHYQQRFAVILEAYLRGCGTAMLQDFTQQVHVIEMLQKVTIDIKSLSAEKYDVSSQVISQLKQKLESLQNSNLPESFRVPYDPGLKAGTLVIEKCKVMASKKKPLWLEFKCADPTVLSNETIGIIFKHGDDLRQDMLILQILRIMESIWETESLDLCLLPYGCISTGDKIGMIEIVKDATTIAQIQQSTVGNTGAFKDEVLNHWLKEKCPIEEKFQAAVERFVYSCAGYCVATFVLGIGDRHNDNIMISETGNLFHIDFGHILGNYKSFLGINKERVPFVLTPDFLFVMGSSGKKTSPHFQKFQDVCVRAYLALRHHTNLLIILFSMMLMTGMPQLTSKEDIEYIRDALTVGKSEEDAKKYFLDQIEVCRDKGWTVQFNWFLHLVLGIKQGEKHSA

In the case of `Cc1nc(Nc2cccc(N3CCCC3=O)n2)sc1-c1cc2c(c(S(C)(=O)=O)c1)C(=O)N([C@@H](C)C1CC1)C2` [AZD-8154], the result in the series on Rattus norvegicus [1] and in the series on Rattus norvegicus [21] was inactive. Further, the 50% inhibitory concentration (IC50) in [2] is 63.1 nM; in [3] it was 3980 nM; in series [6] it was 0.794 nM; in series [9], 0.631 nM; in series [11], > 10000 nM; in series [12], 3160 nM. The IC50 in series [16] was 3.16 nM; in series [23] it was 501 nM. For the same compound, the outcome (in series [4]; in [14]; in series [15]; in the series on Rattus norvegicus [22]) was Active. In addition, the half-life in series [5] was 2.9 h; in series [8], 7.1 h. In series [7], the Vd is 4 L/kg. The Tm in series [10] came to 285 °C. In addition, the Papp entry in [13] was “Impermeable”. In addition, the logD in series [17] came to 4.4. For the same compound, the permeability entry in [18] was “Permeable”. The bioavailability in series [19] is < 4%. Moreover, the clearance in series [20] was determined as 20 mL/min/kg. The compound also came in with a thermodynamic solubility at 24 h in series [24] of 0.054 µM (≈ 0.0298 µg/mL).
